# How the values were obtained:
# [1] = tested on: micro-capillary blood flow to skin; assay: Laser Doppler capillary blood flow study, Example 5 (closed Hilltop chamber on forearm); format: in vivo, humans; conditions: applied to the skin at 1/10% in alcohol
# Description: This example illustrates delivery of nitric oxide formulations similar to those discussed herein in humans. In these studies, laser Doppler studies were performed on three human female subjects. […] The formulations used produce positive, almost immediate results when applied to the skin which, in these studies, was manifested by vasodilatation of the cutaneous vascular system.
# While nitric oxide has many physiological effects, the purpose of these studies was to measure physiological effects that would be relatively easy to determine, and which would be noninvasive. […] Nitric oxide is capable of […] the capillary bed, and thus, laser Doppler was selected.
# The formulation used in these studies contained nitric oxide dispersed in a lipid matrix. […] This provided a stable measuring device as determined by multiple normal evaluations of the capillary blood flow without treatment of nitric oxide.
# A known positive control, methyl nicotinate, was applied to the skin at a concentration of 1/10% in alcohol. […] The laser Doppler device accurately measured these parameters.
# In these studies, the participants were healthy females aged 30 to 55 years. They were in good health as determined by the medical history and were not taking any prescription medications. All study participants read and signed the informed consent statement prior to any study procedures being performed. […]
# [2] = tested on: capillary circulation of the skin; assay: Laser Doppler circulation study in five human subjects, Example 7; format: in vivo; conditions: positive control formulation containing 0.1% methyl nicotinate, vs untreated skin
# From the text: This example illustrates delivery of nitric oxide formulations to five human subjects, using procedures and formulations similar to those discussed in Example 5. Each person served as their own control for the testing. A Moor Instruments Laser Doppler was used to determine circulation. […] The formulations used produce positive, almost immediate results when applied to the skin which, in these studies, was manifested by vasodilatation of the cutaneous vascular system.
# For each subject, the following creams were applied: a negative control formulation (containing no NO), 0.010 gram of a 10,000 ppm NO formulation, 0.020 gram of a 10,000 ppm NO formulation, and a positive control formulation containing 0.1% methyl nicotinate. The formulations were prepared using procedures similar to those discussed in Example 1.
compound,measurement,setting,value
COC(=O)c1cccnc1 [methyl nicotinate],laser Doppler response of positive control,[1],rapid response typical of the vasodilator
same,vasodilatation,[2],vasodilatation was observed

# From US10034898B2, “Methods and systems for treatment of inflammatory diseases with nitric oxide” (priority 2012, dated 2018)
